Consider 4 molecules from patent publication US20190375786A1, “STABLE PEPTIDES AND METHODS OF USE THEREOF” (Fred Hutchinson Cancer Research Center, priority 2016, published 2019).

One data set has as its target trypsin (Sus scrofa, UniProt P00761). Description: Trypsin digestion resistance of soluble peptide, RP-HPLC. It counts as in vitro ADME, porcine. More on the design: purchased Sigma Aldrich 6567. The following applies: 500 U/ml trypsin, 30 minutes at 37.5° C.; HPLC peak vs untreated peptide. As to the method: (§1) Peptides were first suspended in 500 μl of ddH2O to a stock concentration of 2 mg/ml. Reactions were prepared by adding 12.5 μg of peptide from the stock solution to a 10 mM solution of DTT in PBS and allowed to incubate at room temperature for 30 minutes. Other reactions were prepared with 12.5 μg peptide and 500 U/ml trypsin in 25 mM Tris/75 mM NaCl buffer (pH 7.0) and incubated for 30 minutes at 37.5° C. These reactions were then quenched with 5 μg of soybean trypsin inhibitor (I) and, in some cases, 10 mM dithiothreitol (DTT). Reversed phase HPLC (RP-HPLC) was run on samples using an Agilent 1260 HPLC equipped with a C-18 Poroshell 120B column. Sample were analyzed by a gradient method with a mobile phase of Solvent A (water with 0.1% TFA) and Solvent B (acetonitrile with 0.1% TFA). Solvent B was ramped up from 5%-45% of the mobile phase over a period of 10 minutes. For testing pepsin digestion resistance, reactions were prepared with 12.5 μg peptide with or without 500 U/ml pepsin in simulated gastric fluid (SGF; pH 1.05; […] sodium chloride in 0.7% (v/v) hydrochloric acid) and were incubated for 30 minutes at 37.5° C. For testing temperature resistance, peptides were incubated at 70° C., 75° C., or 100° C. for one hour in 0.5 mM PBS, pelleted, and then the supernatant was analyzed by HPLC.
(§2) This example illustrates peptide stability in biological conditions including in the presence of reducing agents, proteases, oxidative conditions, acidic conditions, and simulated gastric fluids. […] Various peptides were suspended in 500 μl of ddH2O at a stock concentration of 2 mg/ml. This was then diluted in accord with the reaction conditions to prevent adverse buffering effects. Reactions were prepared with 12.5 μg peptide dissolved in solution and, in some samples, additionally suspended in a 10 mM solution of DTT, simulated gastric fluid (pH 1.05; […] sodium chloride in 0.7% (v/v) hydrochloric acid), 500 U pepsin (5000 U/ml pepsin), 50 U trypsin (500 U/ml trypsin) with 1 mg/ml inhibitor in PBS, or a combination of any of these conditions. All protease reactions were incubated for 30 min at room temperature and then quenched. Pepsin reactions were quenched by adding Tris base to a final concentration of 0.075 M. Trypsin reactions were quenched by adding excess soybean trypsin inhibitor. RP-HPLC was then run on samples using an Agilent 1260 HPLC equipped with a C-18 Poroshell 120B column. Sample were analyzed by a gradient method with a mobile phase of Solvent A (water with 0.1% TFA) and Solvent B (acetonitrile with 0.1% TFA). Solvent B was ramped up from 5%-45% of the mobile phase over a period of 10 minutes.
Soluble peptides were exposed to 500 U/mL porcine trypsin and analyzed by HPLC. Protease resistance was also assessed by using SDPR-displaying peptides. The SDPR vector is similar to the a surface display GFP FasL(SDGF) vector, but contains a C-terminal 6×His tag (SEQ ID NO: 180) and all basic or aromatic amino acid residues on the stalk removed. Protease resistance is then tested by incubation of cells displaying peptides with trypsin or chymotrypsin, followed by incubation in 10 mM DTT, and staining with an anti-6×His fluorophore-labeled antibody (“6×His” disclosed as SEQ ID NO: 180). If peptides are uncleaved, they retain the His tag and are stained with by the antibody. A control protease-sensitive knottin peptide (SK) was used as a positive control. Cells displaying peptides were treated with up to 40 μg/ml trypsin or chymotrypsin.
FIG. 21 illustrates high performance liquid chromatograph (HPLC) traces of peptides after trypsin digestion. […] The assay was carried out by reconstituting 1 mg porcine trypsin (Sigma Aldrich 6567) in 1 mL of 1 mM HCl. Trypsin was provided at a concentration of 10,000 u/mL and thus, 5 μl of stock solution was equivalent to using 50 U of trypsin in each reaction. Soybean trypsin inhibitor (SA T9128) was prepared at 1 mg/mL of in H2O. […]

The next data set concerns the target pepsin (Sus scrofa, UniProt P00791). Description: Pepsin digestion resistance in simulated gastric fluid, RP-HPLC. It counts as in vitro ADME, porcine. Particulars: 500 U/ml pepsin in SGF pH 1.05, 30 minutes at 37.5° C.; HPLC peak vs untreated peptide. More on the design: purchased Sigma Aldrich P7012. As to the method:
Peptides were first suspended in 500 ul of ddH2O to a stock concentration of 2 mg/ml. Reactions were prepared by adding 12.5 ug of peptide from the stock solution to a 10 mM solution of DTT in PBS and allowed to incubate at room temperature for 30 minutes. Other reactions were prepared with 12.5 μg peptide with or without 500 U/ml pepsin in simulated gastric fluid (SGF; pH 1.05; […] sodium chloride in 0.7% (v/v) hydrochloric acid) and were incubated for 30 minutes at 37.5° C. Some reactions were quenched with a final concentration of 100 mM Tris base and 10 mM dithiothreitol (DTT). Some reactions were performed in all of the above components, including simulated gastric fluid, pepsin, Tris, and DTT (referred to as SPTD). Reversed phase HPLC (RP-HPLC) was run on samples using an Agilent 1260 HPLC equipped with a C-18 Poroshell 120B column. Sample were analyzed by a gradient method with a mobile phase of Solvent A (water with 0.1% TFA) and Solvent B (acetonitrile with 0.1% TFA). Solvent B was ramped up from 5%-45% of the mobile phase over a period of 10 minutes. Peptides were detected at an absorbance of 214 nm and 280 nm.
as §1, §2
FIG. 20 illustrates high performance liquid chromatograph (HPLC) traces of peptides after pepsin digestion. […]

The structures appear in SMILES notation. Positions of bridges follow the written chain, without caps; N, C: chain ends. Residues, ends and D or L forms follow the SMILES beside them.

Sequence of pepsin (P00791 60-385): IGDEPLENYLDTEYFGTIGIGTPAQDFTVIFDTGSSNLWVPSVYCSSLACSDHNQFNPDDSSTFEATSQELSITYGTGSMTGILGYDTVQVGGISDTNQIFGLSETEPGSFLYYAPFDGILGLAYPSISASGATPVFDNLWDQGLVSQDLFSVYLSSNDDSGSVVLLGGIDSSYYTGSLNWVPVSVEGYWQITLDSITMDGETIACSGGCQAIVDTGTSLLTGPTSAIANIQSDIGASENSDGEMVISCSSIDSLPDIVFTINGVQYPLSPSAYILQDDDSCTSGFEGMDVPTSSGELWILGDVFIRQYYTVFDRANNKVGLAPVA
Sequence of trypsin (P00761 9-231): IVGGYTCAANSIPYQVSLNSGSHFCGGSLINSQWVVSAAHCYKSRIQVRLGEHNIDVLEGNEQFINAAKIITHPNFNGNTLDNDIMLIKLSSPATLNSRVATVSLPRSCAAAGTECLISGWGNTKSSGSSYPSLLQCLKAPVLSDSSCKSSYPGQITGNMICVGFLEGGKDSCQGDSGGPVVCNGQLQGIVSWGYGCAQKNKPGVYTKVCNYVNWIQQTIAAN

As to `CC[C@H](C)[C@H](NC(=O)CNC(=O)[C@@H](NC(=O)[C@H](CO)NC(=O)[C@@H](NC(=O)[C@H](CO)NC(=O)CN)[C@@H](C)CC)[C@@H](C)CC)C(=O)N[C@@H](CCCCN)C(=O)N[C@H]1CSSC[C@@H]2NC(=O)[C@H](Cc3ccc(O)cc3)NC(=O)CNC(=O)[C@H]([C@@H](C)O)NC(=O)[C@H](Cc3ccccc3)NC(=O)[C@H](Cc3ccc(O)cc3)NC(=O)[C@H](CCCCN)NC(=O)[C@H](CCCNC(=N)N)NC(=O)[C@H]([C@@H](C)CC)NC(=O)[C@H](CCCNC(=N)N)NC(=O)[C@@H]3CSSC[C@@H](C(=O)N[C@@H](CO)C(=O)NCC(=O)O)NC(=O)[C@H](Cc4c[nH]cn4)NC(=O)[C@H](CSSC[C@H](NC(=O)[C@H](CC(C)C)NC(=O)[C@H](CC(=O)O)NC(=O)[C@H]([C@@H](C)CC)NC(=O)[C@H](CO)NC(=O)[C@@H]4CCCN4C(=O)[C@H](CO)NC1=O)C(=O)N[C@@H](CCC(=O)O)C(=O)NCC(=O)N[C@@H](CCC(N)=O)C(=O)N3)NC(=O)[C@H]([C@@H](C)O)NC(=O)[C@H](CC(=O)O)NC(=O)CNC(=O)[C@H](CO)NC2=O` [compound 3] (H-GSISIGIKCSPSIDLCEGQCRIRKYFTGYCSGDTCHCSG-OH; disulfide 9-30, 16-35, 20-37), the “Resistance to Trypsin (500 U/ml)” value on trypsin is reported as “Low (A peptide classified as low indicates that the majority (over 75%) of the HPLC peak of the treated peptide disappeared as compared to the HPLC peak of the untreated peptide)”. Besides, the “Resistance to Pepsin (500 U/ml)” value at pepsin is “Moderate (A peptide classified as medium indicates that about half (between 25% and 75%) of the HPLC peak of the treated peptide disappeared as compared to the HPLC peak of the untreated peptide)”.

For the molecule `CC[C@H](C)[C@@H]1NC(=O)[C@@H]2CSSC[C@H](NC(=O)[C@H](C)NC(=O)CNC(=O)[C@H](CCC(=O)O)NC(=O)[C@@H](NC(=O)[C@H](CCCCN)NC(=O)[C@H](Cc3ccccc3)NC(=O)[C@H](CC(N)=O)NC(=O)[C@H](CO)NC(=O)CN)C(C)C)C(=O)N[C@@H](CO)C(=O)N[C@@H](CCCCN)C(=O)N3CCC[C@H]3C(=O)N[C@H]3CSSC[C@H](NC(=O)[C@H](CCCNC(=N)N)NC(=O)CNC(=O)[C@H](CC(N)=O)NC1=O)C(=O)N[C@@H](Cc1c[nH]cn1)C(=O)N[C@H](C(=O)N[C@@H](Cc1ccc(O)cc1)C(=O)N[C@@H](Cc1ccc(O)cc1)C(=O)O)CSSC[C@H](NC(=O)[C@H](Cc1ccc(O)cc1)NC(=O)[C@H](CCCCN)NC(=O)[C@H](CCCNC(=N)N)NC3=O)C(=O)N[C@@H]([C@@H](C)CC)C(=O)N[C@@H](CC(=O)O)C(=O)N[C@@H](CCCCN)C(=O)NCC(=O)N[C@@H](C)C(=O)N[C@@H](CCCNC(=N)N)C(=O)N[C@@H](CC(N)=O)C(=O)NCC(=O)N[C@@H](CCCCN)C(=O)N2` [compound 5] (H-GSNFKVEGACSKPCRKYCIDKGARNGKCINGRCHCYY-OH; disulfide 10-28, 14-33, 18-35), the “Resistance to Trypsin (500 U/ml)” value at trypsin was “Moderate (A peptide classified as medium indicates that about half (between 25% and 75%) of the HPLC peak of the treated peptide disappeared as compared to the HPLC peak of the untreated peptide)”. Further, the “Resistance to Pepsin (500 U/ml)” value at pepsin is “Moderate (A peptide classified as medium indicates that about half (between 25% and 75%) of the HPLC peak of the treated peptide disappeared as compared to the HPLC peak of the untreated peptide)”.

As for `CC[C@H](C)[C@@H]1NC(=O)[C@H](CCCNC(=N)N)NC(=O)[C@H]([C@@H](C)CC)NC(=O)[C@@H]2CSSC[C@@H](C(=O)N[C@@H](Cc3ccc(O)cc3)C(=O)N3CCC[C@H]3C(=O)O)NC(=O)[C@H](Cc3ccc(O)cc3)NC(=O)[C@@H]3CSSC[C@H](NC(=O)[C@H](CCC(=O)O)NC(=O)[C@H](CO)NC(=O)[C@H](CO)NC(=O)[C@H](CC(N)=O)NC(=O)[C@H](CC(N)=O)NC(=O)[C@@H](NC(=O)[C@H](CCCNC(=N)N)NC(=O)[C@H](CC(N)=O)NC(=O)[C@H](CO)NC(=O)[C@H](CC(C)C)NC(=O)[C@@H](NC(=O)[C@H](CCCCN)NC(=O)[C@H](CCC(N)=O)NC(=O)[C@H](CO)NC(=O)CN)[C@@H](C)CC)CSSC[C@H](NC(=O)[C@H](CCCCN)NC(=O)[C@H](C)NC(=O)[C@H](C)NC(=O)[C@H](CCCNC(=N)N)NC(=O)[C@H]([C@@H](C)O)NC(=O)CNC(=O)[C@H](Cc4ccccc4)NC1=O)C(=O)N[C@@H]([C@@H](C)CC)C(=O)N[C@@H](CC(N)=O)C(=O)N[C@@H](CCCNC(=N)N)C(=O)N[C@@H](CCCCN)C(=O)N3)C(=O)N[C@@H]([C@@H](C)CC)C(=O)N1CCC[C@H]1C(=O)N[C@@H](Cc1c[nH]cn1)C(=O)N2` [compound 6] (H-GSQKILSNRCNNSSECIPHCIRIFGTRAAKCINRKCYCYP-OH; disulfide 10-31, 16-36, 20-38), the “Resistance to Trypsin (500 U/ml)” value at trypsin is on record as “High (A peptide classified as high indicates that the majority (at least 75%) of the HPLC peak of the treated peptide is still present as compared to the HPLC peak of the untreated peptide)”. For the same molecule, at pepsin, the “Resistance to Pepsin (500 U/ml)” value was “High (A peptide classified as high indicates that the majority (at least 75%) of the HPLC peak of the treated peptide is still present as compared to the HPLC peak of the untreated peptide)”.

With `CC[C@H](C)[C@@H]1NC(=O)[C@@H]2CSSC[C@H](NC(=O)[C@@H](NC(=O)[C@H](C)NC(=O)[C@H](CO)NC(=O)CN)C(C)C)C(=O)N[C@@H](CC(N)=O)C(=O)N[C@@H](CC(C)C)C(=O)N[C@@H](CCCCN)C(=O)N[C@@H](CCCNC(=N)N)C(=O)N[C@H]3CSSC[C@H](NC(=O)[C@H](CCCCN)NC(=O)[C@H](CC(=O)O)NC(=O)CNC1=O)C(=O)N[C@@H](CCC(=O)O)C(=O)N[C@H](C(=O)N[C@H](C(=O)N[C@@H](CCCCN)C(=O)N[C@@H](Cc1c[nH]cn1)C(=O)NCC(=O)O)C(C)C)CSSC[C@H](NC(=O)[C@H](CO)NC(=O)[C@H](CC(C)C)NC(=O)[C@H](CCC(N)=O)NC3=O)C(=O)N[C@@H](CCCNC(=N)N)C(=O)N[C@@H](CO)C(=O)N[C@@H](CC(C)C)C(=O)NCC(=O)N[C@@H](CC(C)C)C(=O)N[C@@H](CC(C)C)C(=O)NCC(=O)N[C@@H](CCCCN)C(=O)N2` [compound 8] (H-GSAVCNLKRCQLSCRSLGLLGKCIGDKCECVKHG-OH; disulfide 5-23, 10-28, 14-30), the “Resistance to Trypsin (500 U/ml)” value on trypsin is listed as “Low (A peptide classified as low indicates that the majority (over 75%) of the HPLC peak of the treated peptide disappeared as compared to the HPLC peak of the untreated peptide)”. Moreover, the “Resistance to Pepsin (500 U/ml)” value at pepsin is “High (A peptide classified as high indicates that the majority (at least 75%) of the HPLC peak of the treated peptide is still present as compared to the HPLC peak of the untreated peptide)”.
